Reference: US4925867A, “Hydrocarbon substituted pyrrolidinones, intermediates therefor, and anti-convulsant use thereof” (Merck Sharp & Dohme Ltd., priority 1988, dated 1990)

What was measured:
[1] = system: NMDA-induced excitation; conditions: Evans et al., Brain Research, 1978, 148, 536-542; cited from earlier work
[2] = system: NMDA receptors; assay: Cortical slice studies: antagonism of responses to NMDA in rat cortical slice; format: cell-based; conditions: from righthand shift in the NMDA concentration-response curve, read-out: apparent equilibrium constant (Kb)
Protocol: The compounds useful in this invention potently and selectively block responses to NMDA in a brain slice from rat cortex, inhibit glycine binding to the strychnine-insensitive site present on the NMDA receptor, and block the potentiation of NMDA responses by glycine in cultured cortical neurones.
The effects of compounds of the invention on responses to NMDA were assessed using the rat cortical slice as described by Wong et al., Proc. Natl. Acad. Sci. USA, 1986, 83, 7104. The apparent equilibrium constant (Kb) was calculated from the righthand shift in the NMDA concentration-response curve produced by the compound under test.

SMILES | antagonism of NMDA-induced excitation (in words) [1] | Kb [2]
NC1CCN(O)C1=O (stereo not drawn) [HA-966, 3-amino-1-hydroxypyrrolidin-2-one] | able to antagonise selectively NMDA-induced excitation | 
C[C@@H]1CN(O)C(=O)[C@@H]1N [Example 2, (3R,4R)-3-Amino-1-hydroxy-4-methylpyrrolidin-2-one] |  | < 100 µM
C[C@H]1CN(O)C(=O)[C@H]1N (relative stereo) [Example 1, cis-3-Amino-1-hydroxy-4-methylpyrrolidin-2-one] |  | < 100 µM
